Data from patent US4898940A (priority 1989, dated 1990).
≈ marks a conversion by molar mass, not a printed value.

Legend:
[1] = tested on: Lymphocytic leukemia P388; experiment: Antitumor activity against P388 leukemia in mice; assay type: in vivo, CDF1 and BDF1 mice; conditions: for T/C % of MST: P388 leukemia; for antitumor activity against P388 leukemia (in words): ip
Method: (§1) Lymphocytic leukemia P388 (CDF1 and BDF1 mice) and lymphoid leukemia L1210 (BDF1 mice) were inoculated by intraperitoneal injection of 0.8 ml diluted ascitic fluid containing 10^6 and 10^5 cells per mouse, respectively. Melanotic melanoma B16 (BDF1 mice) were implanted 0.5 ml of a 10% tumor brei intraperitoneally. Test materials were dissolved in 0.9% saline containing 10% dimethyl sulfoxide and graded doses of them were administered to mice intraperitoneally 24 hours after tumor implantation. Either olivomycin (NSC 38270) or mitomycin C was comparatively tested as a reference compound in the experiments.
Values for percentage ratios of 125 and above indicate significant antitumor effect.

Piricularia oryzae = assay type: cell-based; conditions: Piricularia oryzae D 91; Sabouraud dextrose agar
Melanotic melanoma B16 = experiment: Antitumor activity against B16 melanoma in mice; assay type: in vivo, BDF1 mice; conditions: for T/C % of MST: B16 melanoma, BDF1 mice
Method: as §1

Aspergillus fumigatus = experiment: MIC, serial agar dilution (Sabouraud dextrose agar); assay type: cell-based
Source text: (§2) Nutrient agar (Eiken) was used for bacteria and Sabouraud dextrose agar (Difco) for fungi. The inoculum size was adjusted to 10^4 CFU/ml for bacteria and 10^5 -10^7 CFU/ml for fungi.

Sporothrix schenckii = experiment: as above; assay type: cell-based; conditions: Sporothrix schenckii IFO 8158
Source text: as §2

Petriellidium boydii = experiment: as above; assay type: cell-based; conditions: Petriellidium boydii IFO 8073
Source text: as §2

Cryptococcus neoformans = experiment: as above; assay type: cell-based
Source text: as §2

Blastomyces dermaditis = experiment: as above; assay type: cell-based; conditions: Blastomyces dermaditis IFO 8144
Source text: as §2

Mucor spinosus = experiment: as above; assay type: cell-based; conditions: Mucor spinosus IFO 5317
Source text: as §2

[2] = tested on: Trichophyton mentagrophytes; experiment: as above; assay type: cell-based
Source text: as §2

Aspergillus flavus = experiment: as above; assay type: cell-based; conditions: Aspergillus flavus FA 21436
Source text: as §2

Fusarium moniliforme = experiment: as above; assay type: cell-based; conditions: Fusarium moniliforme A 2284
Source text: as §2

Candida albicans = experiment: as above; assay type: cell-based
Source text: as §2

lymphoid leukemia L1210 = experiment: Antitumor activity against L1210 leukemia in mice; assay type: in vivo, BDF1 mice; conditions: for T/C % of MST: L1210 leukemia, BDF1 mice
Method: as §1

[3] = tested on: gram-positive and gram-negative bacteria; experiment: In vitro antibacterial activity; assay type: cell-based; conditions: at 50 mcg/ml
Source text: as §2

[4] = tested on: pathogenic fungi such as Candida albicans, Cryptococcus neoformans, Aspergillus fumigatus, Trichlophyton mentagrophytes and Mucor spinosus; experiment: In vitro antifungal activity; assay type: cell-based; conditions: clinically important pathogenic fungi
Source text: as §2

[5] = Acute toxicity, single intraperitoneal administration; conditions: male ddY mice
Escherichia coli = experiment: MIC, serial agar dilution (nutrient agar); assay type: cell-based; conditions: Escherichia coli NIHJ
Source text: as §2

Morganella morganii = experiment: MIC, serial agar dilution (nutrient agar); assay type: cell-based; conditions: Morganella morganii A9553
Source text: as §2

Enterobacter cloacae = experiment: MIC, serial agar dilution (nutrient agar); assay type: cell-based; conditions: Enterobacter cloacae A9659
Source text: as §2

Micrococcus luteus = experiment: MIC, serial agar dilution (nutrient agar); assay type: cell-based; conditions: Micrococcus luteus PCI-1001
Source text: as §2

Pseudomonas aeruginosa = experiment: MIC, serial agar dilution (nutrient agar); assay type: cell-based; conditions: Pseudomonas aeruginosa A9930
Source text: as §2

Serratia marcescens = experiment: MIC, serial agar dilution (nutrient agar); assay type: cell-based; conditions: Serratia marcescens A20222
Source text: as §2

Bacillus subtilis = experiment: MIC, serial agar dilution (nutrient agar); assay type: cell-based; conditions: Bacillus subtilis PCI-219
Source text: as §2

Proteus mirabilis = experiment: MIC, serial agar dilution (nutrient agar); assay type: cell-based; conditions: Proteus mirabilis A9554
Source text: as §2

[6] = tested on: Staphylococcus epidermidis; experiment: MIC, serial agar dilution (nutrient agar); assay type: cell-based
Source text: as §2

Proteus vulgaris = experiment: MIC, serial agar dilution (nutrient agar); assay type: cell-based; conditions: Proteus vulgaris A9436
Source text: as §2

Staphylococcus aureus = experiment: MIC, serial agar dilution (nutrient agar); assay type: cell-based
Source text: as §2

Streptococcus faecalis = experiment: MIC, serial agar dilution (nutrient agar); assay type: cell-based; conditions: Streptococcus faecalis A9612
Source text: as §2

Klebsiella pneumoniae = experiment: MIC, serial agar dilution (nutrient agar); assay type: cell-based; conditions: Klebsiella pneumoniae D-11
Source text: as §2

Solubility in solvents = assay type: physicochemical

CCCCCCC/C=C/C=C/C(=O)N[C@H](C(=O)N[C@H]1C[C@@H](O)CCNC(=O)/C=C/[C@H](C)NC1=O)[C@@H](C)O [BU-2867T A]
T/C % of MST ([1]; 0.031 mg/kg/day ip, schedule 2 (once daily on days 1 through 9)): 109% | T/C % of MST ([1]; 0.063 mg/kg/day ip, schedule 2 (once daily on days 1 through 9)): 136% | T/C % of MST ([1]; 0.1 mg/kg/day ip, schedule 1 (once daily on days 1, 4 and 7)): 120% | T/C % of MST ([1]; 0.13 mg/kg/day ip, schedule 2 (once daily on days 1 through 9)): 147% | T/C % of MST ([1]; 0.25 mg/kg/day ip, schedule 2 (once daily on days 1 through 9)): 156% | T/C % of MST ([1]; 0.3 mg/kg/day ip, schedule 1 (once daily on days 1, 4 and 7)): 130% | T/C % of MST ([1]; 0.5 mg/kg/day ip, schedule 2 (once daily on days 1 through 9)): 186% | T/C % of MST ([1]; 1 mg/kg/day ip, schedule 1 (once daily on days 1, 4 and 7)): 140% | T/C % of MST ([1]; 1 mg/kg/day ip, schedule 2 (once daily on days 1 through 9)): 228% | T/C % of MST ([1]; 2 mg/kg/day ip, schedule 2 (once daily on days 1 through 9)): 67% | antitumor activity against P388 leukemia (in words) ([1]; treatment schedule 1 (once daily on days 1, 4 and 7)): showed antitumor activity | antitumor activity against P388 leukemia (in words) ([1]; treatment schedule 2 (once daily on days 1 through 9)): highly active | MIC (Piricularia oryzae): > 50 mg/L | T/C % of MST (Melanotic melanoma B16; 0.25 mg/kg/day ip): 113% | T/C % of MST (Melanotic melanoma B16; 0.5 mg/kg/day ip): 116% | T/C % of MST (Melanotic melanoma B16; 1 mg/kg/day ip): 125% | T/C % of MST (Melanotic melanoma B16; 2 mg/kg/day ip): Tox. | antitumor activity against B16 melanoma (in words) (Melanotic melanoma B16; compared with P388): less active | MIC (Aspergillus fumigatus; Aspergillus fumigatus IAM 2034): 1.6 mg/L (≈ 3.07 µM) | MIC (Aspergillus fumigatus; Aspergillus fumigatus IAM 2530): 1.6 mg/L (≈ 3.07 µM) | MIC (Sporothrix schenckii): > 50 mg/L | MIC (Petriellidium boydii): > 50 mg/L | MIC (Cryptococcus neoformans; Cryptococcus neoformans D 49): 25 mg/L (≈ 48 µM) | MIC (Cryptococcus neoformans; Cryptococcus neoformans IAM 4514): 25 mg/L (≈ 48 µM) | MIC (Blastomyces dermaditis): 50 mg/L (≈ 96 µM) | MIC (Mucor spinosus): 1.6 mg/L (≈ 3.07 µM) | MIC ([2]; Trichophyton mentagrophytes #4329): 25 mg/L (≈ 48 µM) | MIC ([2]; Trichophyton mentagrophytes D 155): 25 mg/L (≈ 48 µM) | MIC (Aspergillus flavus): 25 mg/L (≈ 48 µM) | MIC (Fusarium moniliforme): > 50 mg/L | MIC (Candida albicans; Candida albicans A 9540): 1.6 mg/L (≈ 3.07 µM) | MIC (Candida albicans; Candida albicans IAM 4888): 3.1 mg/L (≈ 5.95 µM) | T/C % of MST (lymphoid leukemia L1210; 0.063 mg/kg/day ip): 106% | T/C % of MST (lymphoid leukemia L1210; 0.13 mg/kg/day ip): 118% | T/C % of MST (lymphoid leukemia L1210; 0.25 mg/kg/day ip): 118% | T/C % of MST (lymphoid leukemia L1210; 0.5 mg/kg/day ip): 129% | antitumor activity against L1210 leukemia (in words) (lymphoid leukemia L1210; compared with P388): less active | growth inhibition of gram-positive and gram-negative bacteria (in words) [3]: did not inhibit the growth | antifungal activity (in words) [4]: somewhat less active than component C | LD50 [5]: 8.1 mg/kg | MIC (Escherichia coli): > 50 mg/L | MIC (Morganella morganii): > 50 mg/L | MIC (Enterobacter cloacae): > 50 mg/L | MIC (Micrococcus luteus): > 50 mg/L | MIC (Pseudomonas aeruginosa): > 50 mg/L | MIC (Serratia marcescens): > 50 mg/L | MIC (Bacillus subtilis): > 50 mg/L | MIC (Proteus mirabilis): > 50 mg/L | MIC ([6]; Staphylococcus epidermidis A22152): > 50 mg/L | MIC ([6]; Staphylococcus epidermidis D153): > 50 mg/L | MIC (Proteus vulgaris): > 50 mg/L | MIC (Staphylococcus aureus; Staphyloccus aureus Bx-1633): > 50 mg/L | MIC (Staphylococcus aureus; Staphylococcus aureus 209P): > 50 mg/L | MIC (Staphylococcus aureus; Staphylococcus aureus Smith): > 50 mg/L | MIC (Streptococcus faecalis): > 50 mg/L | MIC (Klebsiella pneumoniae): > 50 mg/L | solubility in chloroform, acetonitrile and ethyl acetate (Solubility in solvents): slightly soluble | solubility in methanol, ethanol, n-butanol and dimethyl sulfoxide (Solubility in solvents): readily soluble | solubility in n-hexane and water (Solubility in solvents): practically insoluble
